Reference: US20250129088A1, “CEREBLON E3 UBIQUITIN LIGASE INHIBITOR” (Gan & Lee Pharmaceuticals Co., Ltd., priority 2022, published 2025)

Legend:
[1] = test system: JeKo-1 cells; assay: JeKo-1 cell proliferation inhibition, CCK-8; type: cell-based; conditions: Homo sapiens, 96 h, JeKo-1, 4 days
Procedure: The complete medium required for JeKo-1 cells is RPMI1640 (ATCC, Product number: 30-2001) basal medium containing 20% fetal bovine serum. The JeKo-1 cells were seeded in a 96-well plate at a density of 10,000 cells/well, and different concentrations of the compounds of the present invention were prepared to treat the cells at the same time. The cells were incubated at a 37° C., 5% CO2 cell culture incubator for 4 days. Cell viability was detected using the CCK-8 kit (Beyotime, Product number: C0040) according to the manufacturer's instructions. According to the inhibition rate, the GraphPad Prism software was used to calculate the IC50 value of each compound for 4 days, and the results are shown in Table 13.

[2] = test system: Z138 cells; assay: Z138 cell proliferation inhibition, CCK-8; type: cell-based; conditions: Homo sapiens, Z-138, 96 h, Z138, 4 days
Procedure: The complete medium required for Z138 cells is IMDM (ATCC, Product number: 30-2005) basal medium containing 10% horse serum. Z138 cells were seeded in a 96-well plate at a density of 10,000 cells/well, and different concentrations of the compound of the present invention and a positive control sample Ibrutinib (source: Bide Pharmaceuticals) were prepared to treat the cells. The cells were incubated in a 37° C., 5% CO2 cell incubator for 4 days. Cell viability was detected using the CCK-8 kit (Beyotime, Product number: C0040) according to the manufacturer's instructions. According to the inhibition rate, the GraphPad Prism software was used to calculate the IC50 value of each compound for 4 days, and the results are shown in Table 14.

| SMILES | IC50 [1] | IC50 [2] |
| --- | --- | --- |
| Nc1ncnc2c1c(-c1ccc(Oc3ccccc3)cc1)nn2[C@@H]1CCCN(CCOCCC(=O)N2CCC3(CCc4cc5c(cc4O3)CN(C3CCC(=O)NC3=O)C5=O)CC2)C1 (stereo partly drawn) [PROTAC 35, 3-(1-(3-(2-((R)-3-(4-amino-3-(4-phenoxyphenyl)-1H-pyrazolo[3,4-d]pyrimidine-1-yl)piperidin-1-yl)ethoxy)propionyl)-6′-oxo-3′,4′,6′,8′-tetrahydro-7′H-spiro[piperidine-4, 2′-pyrano[2,3-f]isoindol]-7′-yl)piperidine-2,6-dione] | 19.1 µM | 22.6 µM |
| Nc1ncnc2c1c(-c1ccc(Oc3ccccc3)cc1)nn2[C@@H]1CCCN(CCOCCC(=O)N2CCC3(CC2)COc2cc4c(cc2O3)CN(C2CCC(=O)NC2=O)C4=O)C1 (stereo partly drawn) [PROTAC 37, 3-(1-(3-(2-((R)-3-(4-amino-3-(4-phenoxyphenyl)-1H-pyrazolo[3,4-d]pyrimidine-1-yl)piperidin-1-yl)ethoxy)propionyl)-6′-oxo-6′,8′-dihydro-3′H,7′H-spiro[piperidine-4,2′-[1,4]dioxino[2,3-f]isoindole]-7′-yl)piperidine-2,6-dione] | 32.4 µM | 36.1 µM |
